Data taken from article PMC1664607 (PLoS Medicine, 2006).
Values after ≈ are worked out from the molar mass of the structure shown.

How the values were obtained:
[1] = system: CYP2C8/9; experiment: Tolubutamide methylhydroxylation in human liver microsomes; format: in vitro ADME; details: 100 μM; 400 μM tolbutamide
[2] = system: M. tuberculosis ATCC 35812 (Kurono); experiment: Susceptibility testing (agar dilution MIC); format: cell-based; details: Mycobacterium tuberculosis, ATCC35812, 336 h; 7H11 agar, 37 °C, 14 d; read-out: MIC
[3] = system: M. tuberculosis ATCC 35838 (H37Rv-R-R); experiment: microbe, parasite or virus in culture; format: cell-based; details: Mycobacterium tuberculosis, 336 h
[4] = system: M. tuberculosis ATCC 35822 (H37Rv-H-R); experiment: microbe, parasite or virus in culture; format: cell-based; details: Mycobacterium tuberculosis, 336 h
[5] = system: M. tuberculosis ATCC 35820 (H37Rv-S-R); experiment: microbe, parasite or virus in culture; format: cell-based; details: Mycobacterium tuberculosis, 336 h
[6] = system: M. tuberculosis ATCC 35837 (H37Rv-E-R); experiment: microbe, parasite or virus in culture; format: cell-based; details: Mycobacterium tuberculosis, 336 h
[7] = system: M. tuberculosis ATCC 25618 (H37Rv); experiment: Susceptibility testing (agar dilution MIC); format: cell-based; details: Mycobacterium tuberculosis, 336 h; 7H11 agar, 37 °C, 14 d; read-out: MIC
[8] = system: S. typhimurium TA100; experiment: Bacterial reverse mutation (BRM) test; format: cell-based
Method: (§1) The BRM test was performed in accordance with OECD Guideline 471 using Salmonella tyiphimurium TA98, TA100, TA1535, and TA1537, and Escherichia coli WP2 uvrA [11]. Each bacterial strain was pre-cultured at 37 °C for 18 h using a nutrient broth (Nissui Pharmaceutical; http://www.nissui-pharm.co.jp/index_e.html). After adjustment to 2.4 at OD660 nm, each bacterial suspension was added to a test tube containing the designated compound in the absence or presence of rat liver microsome (S9) mix. After a 20-min incubation at 37 °C, top agar was added to each test tube and the contents were poured into minimum essential medium (Oriental Yeast; http://www.oyc.co.jp/e/index.htm). The number of revertants was counted 48 h after incubation at 37 °C.

[9] = system: S. typhimurium TA98; experiment: Bacterial reverse mutation (BRM) test; format: cell-based
Method: as §1

[10] = system: E. coli WP2 uvr A; experiment: Bacterial reverse mutation (BRM) test; format: cell-based
Method: as §1

[11] = system: CYP1A1/2; experiment: 7-Ethoxyresorufin O-deethylation in human liver microsomes; format: in vitro ADME; details: 100 μM; 0.5 μM 7-ethoxyresorufin
[12] = system: M. tuberculosis Kurono; experiment: Therapeutic efficacy in an experimental mouse model of chronic TB; format: in vivo, ICR mice; details: for Dose that could produce a CFU reduction of at least 95%: lung
[13] = system: clinically isolated M. tuberculosis; experiment: microbe, parasite or virus in culture; format: cell-based; details: Mycobacterium tuberculosis; read-out: MIC90
[14] = Plasma levels in an experimental mouse model of TB; details: in vivo, po
[15] = mouse, in vivo, po
[16] = system: S. typhimurium TA1535; experiment: Bacterial reverse mutation (BRM) test; format: cell-based; details: S9 mix +; positive control 2AA 2 μg/plate
Method: as §1

[17] = system: S. typhimurium TA1537; experiment: Bacterial reverse mutation (BRM) test; format: cell-based; details: S9 mix +; positive control 2AA 2 μg/plate
Method: as §1

[18] = S9 mix −, positive control AF-2 0.01 μg/plate

In the case of `Nc1ccc(S(=O)(=O)Nc2ccnn2-c2ccccc2)cc1` [Sulfaphenazole, sulfaphenazole], the “Percent of Control” value [1] is reported as 25.5% of Control.

Molecule `CCC1Cn2cc([N+](=O)[O-])nc2O1` (stereo not drawn) [CGI-17341] has an MIC [2] of 0.2 µg/mL (≈ 1.09 µM), an MIC [3] of 0.05 µg/mL (≈ 0.273 µM) and an MIC [4] of 0.2 µg/mL (≈ 1.09 µM). The MIC [5] was 0.2 µg/mL (≈ 1.09 µM), the MIC [6] was 0.2 µg/mL (≈ 1.09 µM) and the MIC [7] was 0.2 µg/mL (≈ 1.09 µM).

For `NC(=O)C(=Cc1ccc([N+](=O)[O-])o1)c1ccco1` [AF-2, 2-(2-furyl)-3-(5-nitro-2-furyl)acrylamide], the Revertants/Plate [8, 18] was 98 547 Revertants/Plate, the Revertants/Plate ([9]; S9 mix −, positive control AF-2 0.1 μg/plate) was 29 473 Revertants/Plate and the Revertants/Plate [10, 18] was 30 225 Revertants/Plate.

With `Cc1nc2c([nH]1)c(=O)n(C)c(=O)n2Cc1ccco1` [Furafylline, furafylline] the “Percent of Control” value [11] was 32.3% of Control.

With `CO[C@H]1/C=C/O[C@@]2(C)Oc3c(C)c(O)c4c(O)c(c(/C=N/N5CCN(C)CC5)c(O)c4c3C2=O)NC(=O)/C(C)=C\C=C\[C@H](C)[C@H](O)[C@@H](C)[C@@H](O)[C@@H](C)[C@H](OC(C)=O)[C@@H]1C` [RFP, rifampicin] the MIC [2] was 0.39 µg/mL (≈ 0.474 µM), the MIC [3] was over 100 µg/mL and the MIC [4] was 0.39 µg/mL (≈ 0.474 µM). For the same molecule, the “Log of Viable Counts/Lung” value ([12]; 1.25 mg/kg once daily for 28 d (4 weeks), mean ± S.D., n = 5) was 7.409 ± 0.201^c:NS, d:NS, the “Log of Viable Counts/Lung” value ([12]; 10 mg/kg once daily for 28 d (4 weeks), mean ± S.D., n = 5) was 3.972 ± 0.596^c:**, d:** and the “Log of Viable Counts/Lung” value ([12]; 20 mg/kg once daily for 28 d (4 weeks), mean ± S.D., n = 5) was 3.279 ± 0.330^c:**, d:**. For the same molecule, the “Dose that could produce a CFU reduction of at least 95%” value ([12]; once daily for 28 d) was 3.5 mg/kg, the MIC90 [13] was 0.288 µg/mL (≈ 0.35 µM) and the AUC(0-t) ([14]; 5 mg/kg) was 48.2 µg·h/mL. For the same molecule, the Cmax ([14]; 5 mg/kg) was 5100 ng/mL, the Tmax ([14]; 5 mg/kg) was 6 h and the MIC [5] was 0.78 µg/mL (≈ 0.948 µM). For the same molecule, the MIC [6] was 0.2 µg/mL (≈ 0.243 µM), the MIC [7] was 0.78 µg/mL (≈ 0.948 µM) and the “Concentration, 0.5 h” value [15] was 3330 ± 870 ng/mL. For the same molecule, the “Concentration, 1 h” value [15] was 4490 ± 1040 ng/mL, the “Concentration, 2 h” value [15] was 4520 ± 1900 ng/mL and the “Concentration, 4 h” value [15] was 3820 ± 700 ng/mL. For the same molecule, the “Concentration, 6 h” value [15] was 5100 ± 1630 ng/mL and the “Concentration, 16 h” value [15] was 660 ± 260 ng/mL.

With `NC(=O)c1cnccn1` [PZA, pyrazinamide] the “Log of Viable Counts/Lung” value ([12]; 40 mg/kg, 672 h) was 6.942 ± 0.205^a:NS, b:NS, the “Log of Viable Counts/Lung” value ([12]; 80 mg/kg, 672 h) was 6.168 ± 0.774^a:*, b:NS and the “Log of Viable Counts/Lung” value ([12]; 160 mg/kg, 672 h) was 5.823 ± 0.628^a:**, b:*. For the same molecule, the “Log of Viable Counts/Lung” value ([12]; 320 mg/kg, 672 h) was 5.009 ± 0.539^a:**, b:**, the “Dose that could produce a CFU reduction of at least 95%” value ([12]; once daily for 28 d) was 160 mg/kg and the “Dose groups that showed a significant decrease in pulmonary viable bacterial count when compared with the vehicle control group” value ([12]; once daily for 28 d) was 80, 160, and 320 mg/kg. The AUC(0-t) [14] was 197 µg·h/mL, the concentration at 0.083 h [14] was 49600 ± 11200 ng/mL and the concentration at 0.25 h [14] was 59100 ± 14100 ng/mL. It also gave a concentration at 0.5 h [14] of 63200 ± 28900 ng/mL, a concentration at 1 h [14] of 60200 ± 18700 ng/mL and a concentration at 2 h [14] of 35500 ± 6450 ng/mL. The concentration at 4 h [14] was 18400 ± 3090 ng/mL, the AUC(0-t) ([14]; 100 mg/kg) was 198 µg·h/mL and the Cmax ([14]; 100 mg/kg) was 63200 ng/mL. The Tmax ([14]; 100 mg/kg) was 0.5 h and the half-life ([14]; 100 mg/kg) was 1.1 h.

With `Nc1ccc2cc3ccccc3cc2c1` [2AA, 2-aminoanthracene] the Revertants/Plate ([8]; S9 mix +, positive control 2AA 1 μg/plate) was 108 1103 Revertants/Plate, the Revertants/Plate [16] was 6 188 Revertants/Plate and the Revertants/Plate [17] was 81 238 Revertants/Plate. For the same molecule, the Revertants/Plate ([9]; S9 mix +, positive control 2AA 0.5 μg/plate) was 36 92 Revertants/Plate and the Revertants/Plate ([10]; S9 mix +, positive control 2AA 10 μg/plate) was 33 1122 Revertants/Plate.

In the case of `O=c1cc(-c2ccccc2)oc2c1ccc1ccccc12` [7,8-Benzoflavone, 7,8-benzoflavone], the “Percent of Control” value [11] is reported as 3.8% of Control.
